We go through two substances from paper PMC6814738, “Bacterial MgrB peptide activates chemoreceptor Fpr3 in mouse accessory olfactory system and drives avoidance behaviour” (Nature Communications, 2019).

Several values for one entry are separate records, joined by “and”; a condition that tells them apart may be missing. Identical values can stand only once.

One assay deals with T1, mouse Fpr3 (Fpr-rs1) (Mus musculus, UniProt O08790).
T1 construct: expressed in transfected cells; host or cells: HEK293T (DSMZ # ACC-635), transient transfection with jetPEI
T1 sequence (O08790 1-351): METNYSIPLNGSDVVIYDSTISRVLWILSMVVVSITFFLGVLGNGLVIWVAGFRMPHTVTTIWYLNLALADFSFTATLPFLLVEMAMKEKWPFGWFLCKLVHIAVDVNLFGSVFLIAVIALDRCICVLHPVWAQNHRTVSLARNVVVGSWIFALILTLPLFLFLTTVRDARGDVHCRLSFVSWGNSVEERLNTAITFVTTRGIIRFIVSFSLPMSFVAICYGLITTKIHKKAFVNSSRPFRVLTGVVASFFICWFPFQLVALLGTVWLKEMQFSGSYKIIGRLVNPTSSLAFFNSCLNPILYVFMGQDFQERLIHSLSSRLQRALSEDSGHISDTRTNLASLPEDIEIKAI
Put plainly: Heterologous expression / high-throughput Ca2+ imaging agonist screen and sequence selectivity of Fpr3 (Fig. 1a, 2c-e, 2g, 2i). It counts as cell-based. Particulars: mean of n = 3 experiments in triplicate (n = 5 for f-MKKFRW), Fpr3 + Gα16 HEK293T, Fluo-4/AM, FLIPR, buffer C1 pH 7.2, mock 0.059-0.060. On the procedure:
An Fpr3 gene subcloned from genomic DNA of C57BL/6J mice into pcDNA3.1 (Invitrogen) was used in heterologous experiments[21],[80]. HEK293T (DSMZ # ACC-635) cells were seeded at 20–30% confluence on poly-D-lysine-coated (10 µg/ml in PBS) black 96-well µCLEAR-Plates (Greiner Bio-One). Cells were transfected 24 h later using jetPEI™ (Polyplus-transfection SA) according to the manufacturer’s protocol for 96-well transfections. For Ca^2+ imaging experiments, 0.125 µg of DNA plasmid encoding Fpr3 were cotransfected with equal amounts of a plasmid encoding Gα16, a promiscuous G protein α-subunit. Ca^2+ signals to agonist stimulation were recorded 48 h post transfection using the Ca^2+ indicator dye Fluo-4/AM (Molecular Probes) and a fluorescence imaging plate reader (FLIPR) system (Molecular Devices). Cotransfection of a plasmid encoding Gα16 with an empty vector used to subclone Fpr3 gave no agonist-evoked Ca^2+ responses.
We used custom-made peptides with a length of 6–21 amino acids to screen for agonists. Sequences of fMet peptides were designed according to motifs present at the N-termini of 15,125 specific bacterial proteins as annotated in UniProt. Peptides were chemically synthesised, purified, and verified by mass spectroscopy (MALDI-TOF) by commercial suppliers. Purity of all peptides was >95%. Source, sequence and purity of each peptide are listed in Supplementary Data 1. Lyophilised peptides were routinely dissolved in the Ca^2+ imaging assay buffer C1 (130 mM NaCl, 10 mM HEPES, 5 mM KCl, 2 mM CaCl2, 5 mM glucose, pH 7.2) as 0.2–1 mM stock solutions and kept in small aliquots at −20 °C until use. […] The sequences of these peptides exist in proteins from the following bacterial strains[21]: Psychromonas ingrahamii that belongs to a marine ice water microbial community, Desulfotomaculum reducens that is found in deep freshwater lakes, and Pseudomonas grimontii, a plant pathogen. As mice are unlikely to encounter these strains in their natural habitat, these findings are probably not of biological relevance.

The test system of another assay is male mice. Briefly: Behavioural avoidance test, FEU vs. FEU supplemented with peptide (Fig. 8, Supplementary Fig. 4). Type of assay: in vivo, mouse. Particulars: Fig. 8c, B6 mice. The protocol:
These assays were adapted from behavioural procedures described previously[14],[60]. We tested avoidance by giving adult male mice (8–14 week old) of various genotypes a choice to freely investigate two types of chemical stimuli: FEU vs. FEU supplemented with a peptide. Mice were sexually naïve and not exposed to the test stimuli prior to the testing day. Mice were habituated for three days (40 min each day) to clean filter papers (2.5 cm diameter), each deposited in a sterile plastic culture dish and placed in opposite corners of the test cage (30 × 12 cm). After the third habituation period, the test subject was transferred into a new cage containing fresh filter papers/dishes with either of the two test stimuli. One filter paper was impregnated with 45 µl of fresh urine pooled from two sexually naïve female B6 mice (8–16 weeks old) in oestrus (FEU, female oestrous urine) and 5 µl physiological solution containing (in mM): NaCl, 130; KCl, 5; Na-Hepes, 10; CaCl2, 2; glucose, 10; pH = 7.4. For testing the effects of specific peptides, the second filter paper was impregnated with FEU supplemented with a given peptide (100 or 50 µM final concentration, dissolved in physiological solution). Direct physical contact was allowed. Behaviour was recorded for 10 min from the top of the cage. Mice were exposed only once to a given peptide solution, and were exposed to only one peptide stimulus per day. Stimuli were presented in randomised order. […] This investigative behaviour was quantified as the time spent in close contact with each filter paper, scored manually by an observer blind to the experimental conditions using Behavioural Observation Research Interactive Software (BORIS)[85]. Contact time was measured as the time during which the nose crossed the border of a petri dish containing impregnated filter paper. An avoidance index was calculated as (TP — aTU)/(aTP + aTU), with TP as the time an individual mouse investigated a FEU-peptide mixture, aTP as the average time of all tested mice investigating this stimulus and aTU as the average time of all mice investigating FEU without added peptide. Negative values represent avoidance and positive values represent attraction. For analysing investigation of sick conspecifics, B6 mice were injected either with LPS or PBS as described above. In total, 4 h post injection, these mice were anaesthetised with 165 mg/kg ketamine (Pharmacia GmbH, Berlin, Germany) and 11 mg/kg xylazine (Bayer Health Care, Leverkusen, Germany) and then used in behavioural tests.

Assay [1] has as its system vomeronasal sensory neurons (VSNs). Briefly: VNO whole-mount en face confocal Ca2+ imaging of VSN dendritic knobs (Fig. 4, 5). It counts as cell-based, mouse. The arrangement: key to Ca2+ response of f-MKKFRW-responsive VSN knobs / Fpeak: normalised to knob resting fluorescence F0 before stimulation. The text has this: Mice (6–20 week old, either sex) were euthanized by CO2 inhalation according to institutional guidelines. After decapitation, the skin was removed from the skull, the mandible was cut off and the cranium was opened by a sagittal cut, 1–2-mm right-lateral in parallel to the midline. The palate and the right incisor were removed and the hemisected skull was mounted in low-melting agarose (4%). The bony capsule of the VNO was opened with fine forceps and the nonsensory epithelium was stripped off. Tissue and cell debris were gently washed off, and the en face preparation was superfused with physiological S1 solution (120 mM NaCl, 25 mM NaHCO3, 5 mM KCl, 1 mM MgSO4, 1 mM CaCl2, 10 mM glucose, 5 mM BES, pH 7.3) saturated with carbogen (95% O2, 5% CO2).
Loading of the VNE with Rhod-2/AM (5–15 µM, 1 h) was performed in S1 solution under carbogen atmosphere at RT. Images were taken with an upright confocal laser scanning microscope (Leica TCS SP5 II, 20x water immersion objective HCX APO L20x/1.0w) equipped with Ar and He/Ne lasers. GFP was excited at 488 nm, Venus at 514 nm and Rhod-2 at 543 nm. Emission was measured at 490–520 nm (GFP), 520–600 nm (Venus) and 560–680 nm (Rhod-2). To minimise interference between Venus and Rhod-2 fluorescence, images were taken sequentially (sample interval per image, 3–4 s). Peptide stimuli were applied to the VNE surface with a local perfusion system which, when positioned close to the anterior end of the VNO, produced a continuous solution stream from rostral to caudal along the VNO axis. Data analysis was performed with the open source software ImageJ (NIH). Ca^2+ responses of individual dendritic knobs were normalised to the knob resting fluorescence level obtained before stimulation (ratio Fx/F0, Fx = actual fluorescence; F0 = mean fluorescence of 3–5 images before ligand application). Mapping was performed by superimposing Ca^2+ peak images onto images showing intrinsic fluorescence for specific markers.
Predator urine mix was composed of urine from mountain lion, coyote, bobcat, fox and marten (at equal volume ratios), purchased from Predatorpee (USA) and Kieferle (Germany). The fMet peptides were as described above. Stimuli were applied in S2 solution (140 mM NaCl, 5 mM KCl, 10 mM HEPES, 1 mM CaCl2, 1 mM MgCl2, 10 mM glucose, pH 7.3 with NaOH).

With f-MEQQNK [synthesized fMet peptide], the “Ca2+ response, mean” value on mouse Fpr3 (Fpr-rs1) (3 µM) is 0.047 ∆F/F; at mouse Fpr3 (Fpr-rs1) (30 µM), 0.050 ∆F/F. The “Preference Index” value in the assay with male mice (individual values) was -0.06064 and -0.05774 and -0.1328 and -0.09632 and 0.7296 and -0.0445 and 0.1064 and -0.1977 and 0.2779 and -0.1553; in the assay on male mice (mean, n = 11 f-MKKFRW, 11 MKKFRW, 10 f-MGFFIS, 10 f-MEQQNK, FEU control -0.002), 0.0369.
f-MKKFRWVVL [MgrB nonapeptide] displayed a Fpeak in assay [1] (Fig. 4h, mean of individual knobs, n = 103 f-MKKFRW, 21 f-MKKFRWVVL, 68 MKKFRW, 26 f-MGFFIS, 63 PUM) of 0.64. Further, the “Ca2+ responses in VSNs, in words” value in assay [1] (VNE of adult B6 mice, f-MKKFRW 1 µM) is recorded as “VSNs that recognised f-MKKFRW responded also”. The “Ca2+ response of f-MKKFRW-responsive VSN knobs” value in assay [1] (adult B6 mice, mean ± s.d., N = 103 (f-MKKFRW), 21 (f-MKKFRWVVL), 68 (MKKFRW), 26 (f-MGFFIS), 63 (PUM), Fig. 4h) amounted to 0.64 ± 0.45.
